From patent US11753634B2, “Method and apparatus for applying heat to living tissue” (NATIONAL TAIWAN UNIVERSITY, priority 2019, dated 2023)
Read-outs that look alike come from different tables or passages of the source.

What was measured:
[1] = test system: human pancreatic cancer cells (PANC-1); assay: cells
Source text: In addition, for the portion of the living tissue, the human pancreatic cancer cells (PANC-1) are used instead of the neural cells as an example for illustration. Furthermore, the living pancreatic cancer cells are also placed in the culture solution of petri dish in order to perform the heat treatment method of the present invention.
In addition, for the portion of the living tissue, the human pancreatic cancer cells (PANC-1) are used as an example for illustration. Furthermore, the living pancreatic cancer cells are also placed in the culture solution of petri dish in order to perform the heat treatment method of the present invention.
The control group refers to the comparison group without the heat treatment according to the method of the present invention.

[2] = test system: human neural cells (SH-SY5Y); assay: cell viability of human neural cells (SH-SY5Y) with/without cyclic heat treatment; details: hydrogen peroxide processing

O=C(/C=C/c1ccc(O)c(O)c1)O[C@@H]1C[C@](O)(C(=O)O)C[C@@H](O)[C@H]1O [CGA, chlorogenic acid]
viability at 200 µM ([1]; PANC-1, read-out: cell viability, PANC-1, 200 μM CGA, ten times of heat treatment, 43.5° C. / approximately 36° C. (FIG. 10B)): 53% | viability at 200 µM ([1]; PANC-1, read-out: cell viability, PANC-1, 200 μM CGA, without the heat treatment (FIG. 10B)): 88%

Nc1ccn([C@@H]2O[C@H](CO)[C@@H](O)C2(F)F)c(=O)n1 [Gem, gemcitabine]
viability at 5 µM ([1]; PANC-1, read-out: cell viability, PANC-1, 5 μM Gem, ten times of heat treatment, 43.5° C. / approximately 36° C. (FIG. 11)): 55% | viability at 5 µM ([1]; PANC-1, read-out: cell viability, PANC-1, 5 μM Gem, without the heat treatment (FIG. 11)): 90%

OO [hydrogen peroxide]
cell viability ([2]; control group without the heat treatment (FIG. 5A, 5B)): 55% | cell viability ([2]; eight times of heat treatment, max 40.9° C. / min 39.4° C. (FIG. 5A)): 70% | cell viability ([2]; eight times of heat treatment, max 42.0° C. / min 40.3° C. (FIG. 5B)): 82%
